Test results published in patent publication US10336792B2, “Antimicrobial peptide dendrimers” (priority 2014, dated 2019).
Converted amounts (≈) assume the structure as drawn. Positions of bridges follow the written chain, without caps; N, C: chain ends. Non-standard residues stand in square brackets, D forms with d. Residues, ends and D or L forms follow the SMILES beside them. Groups on a side chain read outwards from the residue. Chains are numbered I, II in the order given. *: point of attachment. Stearoyl = CCCCCCCCCCCCCCCCCC(=O)*; Decanoyl = CCCCCCCCCC(=O)*; dDap = NC[C@@H](N)C(=O)O; Dab = NCC[C@H](N)C(=O)O; Hexanoyl = CCCCCC(=O)*

Tests used:
Format in all cases: cell-based
[1] = system: Escherichia coli (strain DH5α); details: DH5α
In short: (§1)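 Broth microdilution MIC in LB; overnight cultures diluted to OD600 0.001 and mixed 1:1 with ⅔-serially diluted samples (stock 1 mg mL^−1 in H2O), 37° C for 18-24 h. MTT (0.1%) added; MIC read by eye as lowest concentration inhibiting visible growth (yellow).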

[2] = system: Bacillus subtilis (strain BR151); details: strain BR151
In short: as §1

[3] = system: Pseudomonas aeruginosa (strain PA01); experiment: microbe, parasite or virus in culture; details: strain
In short: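 Broth microdilution MIC against P. aeruginosa PAO1 in LB: peptides serially diluted by ⅔, bacteria added at OD600 0.001 and incubated 18–24 h at 37 °C. MTT added; MIC is the lowest concentration preventing visible growth.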

MIC E. coli DH5α [1] [µg/mL] | MIC B. subtilis BR151 [2] [µg/mL] | MIC P. aeruginosa PAO1 [3] [µg/mL] | Structure (SMILES)
3 (≈ 0.609 µM) | 6 (≈ 1.22 µM) | 9 (≈ 1.83 µM) | CCCCCCCCCCCCCCCCCC(=O)NCCCC[C@H](NC(=O)[C@H](CC(C)C)NC(=O)[C@H](CCCCN)NC(=O)[C@H](CCCCNC(=O)[C@H](CC(C)C)NC(=O)[C@H](CCCCN)NC(=O)[C@H](CCCCNC(=O)[C@H](CC(C)C)NC(=O)[C@H](CCCCN)NC(=O)[C@H](CCCCNC(=O)[C@H](CC(C)C)NC(=O)[C@@H](N)CCCCN)NC(=O)[C@H](CC(C)C)NC(=O)[C@@H](N)CCCCN)NC(=O)[C@H](CC(C)C)NC(=O)[C@H](CCCCN)NC(=O)[C@H](CCCCNC(=O)[C@H](CC(C)C)NC(=O)[C@@H](N)CCCCN)NC(=O)[C@H](CC(C)C)NC(=O)[C@@H](N)CCCCN)NC(=O)[C@H](CC(C)C)NC(=O)[C@H](CCCCN)NC(=O)[C@H](CCCCNC(=O)[C@H](CC(C)C)NC(=O)[C@H](CCCCN)NC(=O)[C@H](CCCCNC(=O)[C@H](CC(C)C)NC(=O)[C@@H](N)CCCCN)NC(=O)[C@H](CC(C)C)NC(=O)[C@@H](N)CCCCN)NC(=O)[C@H](CC(C)C)NC(=O)[C@H](CCCCN)NC(=O)[C@H](CCCCNC(=O)[C@H](CC(C)C)NC(=O)[C@@H](N)CCCCN)NC(=O)[C@H](CC(C)C)NC(=O)[C@@H](N)CCCCN)C(N)=O [MSt-284, (KL)8(KKL)4(KKL)2(KKLKC18)] (I: H-KLK([Leu-Lys])KLKKLKKLK(Stearoyl)-NH2 / II: H-KLK([Leu-Lys])KLKKL / III: H-KLK([Leu-Lys])KL / IV: H-KLK([Leu-Lys])KL; amide I:6-IV:C, I:9-II:C, II:6-III:C)
2 (≈ 0.462 µM) | 2 (≈ 0.462 µM) | 2 (≈ 0.462 µM) | CC(C)C[C@H](NC(=O)[C@H](CCN)NC(=O)[C@H](CCCCNC(=O)[C@H](CC(C)C)NC(=O)[C@@H](N)CCN)NC(=O)[C@H](CC(C)C)NC(=O)[C@@H](N)CCN)C(=O)NCCCC[C@H](NC(=O)[C@H](CC(C)C)NC(=O)[C@H](CCN)NC(=O)[C@H](CCCCNC(=O)[C@H](CC(C)C)NC(=O)[C@@H](N)CCN)NC(=O)[C@H](CC(C)C)NC(=O)[C@@H](N)CCN)C(=O)N[C@@H](CCN)C(=O)N[C@@H](Cc1c[nH]c2ccccc12)C(=O)NCCCC[C@H](NC(=O)[C@H](Cc1c[nH]c2ccccc12)NC(=O)[C@H](CCN)NC(=O)[C@H](CCCCNC(=O)[C@H](CC(C)C)NC(=O)[C@H](CCN)NC(=O)[C@H](CCCCNC(=O)[C@H](CC(C)C)NC(=O)[C@@H](N)CCN)NC(=O)[C@H](CC(C)C)NC(=O)[C@@H](N)CCN)NC(=O)[C@H](CC(C)C)NC(=O)[C@H](CCN)NC(=O)[C@H](CCCCNC(=O)[C@H](CC(C)C)NC(=O)[C@@H](N)CCN)NC(=O)[C@H](CC(C)C)NC(=O)[C@@H](N)CCN)C(=O)N[C@@H](CCN)C(=O)N[C@@H](Cc1c[nH]c2ccccc12)C(N)=O [MSt-203, (DabL)8(KDabL)4(KDabW)2(KDabW)] (I: H-[Dab]LK([Leu-Dab])[Dab]LK[Dab]WK[Dab]W-NH2 / II: H-[Dab]LK([Leu-Dab])[Dab]LK[Dab]W / III: H-[Dab]LK([Leu-Dab])[Dab]L / IV: H-[Dab]LK([Leu-Dab])[Dab]L; amide I:6-IV:C, I:9-II:C, II:6-III:C; N-terminus assumed)
4 (≈ 0.651 µM) | 10 (≈ 1.63 µM) | 3 (≈ 0.489 µM) | CC(C)C[C@H](NC(=O)[C@H](CCCCN)NC(=O)[C@H](CCCCNC(=O)[C@H](CC(C)C)NC(=O)[C@H](CCCCN)NC(=O)[C@H](CCCCNC(=O)[C@H](CC(C)C)NC(=O)[C@H](CCCCN)NC(=O)CSC[C@H](NC(=O)[C@H](CC(C)C)NC(=O)[C@H](CCCCN)NC(=O)[C@H](CCCCNC(=O)[C@H](CC(C)C)NC(=O)[C@@H](N)CCCCN)NC(=O)[C@H](CC(C)C)NC(=O)[C@@H](N)CCCCN)C(N)=O)NC(=O)[C@H](CC(C)C)NC(=O)[C@H](CCCCN)NC(=O)CSC[C@H](NC(=O)[C@H](CC(C)C)NC(=O)[C@H](CCCCN)NC(=O)[C@H](CCCCNC(=O)[C@H](CC(C)C)NC(=O)[C@@H](N)CCCCN)NC(=O)[C@H](CC(C)C)NC(=O)[C@@H](N)CCCCN)C(N)=O)NC(=O)[C@H](CC(C)C)NC(=O)[C@H](CCCCN)NC(=O)[C@H](CCCCNC(=O)[C@H](CC(C)C)NC(=O)[C@H](CCCCN)NC(=O)CSC[C@H](NC(=O)[C@H](CC(C)C)NC(=O)[C@H](CCCCN)NC(=O)[C@H](CCCCNC(=O)[C@H](CC(C)C)NC(=O)[C@@H](N)CCCCN)NC(=O)[C@H](CC(C)C)NC(=O)[C@@H](N)CCCCN)C(N)=O)NC(=O)[C@H](CC(C)C)NC(=O)[C@H](CCCCN)NC(=O)CSC[C@H](NC(=O)[C@H](CC(C)C)NC(=O)[C@H](CCCCN)NC(=O)[C@H](CCCCNC(=O)[C@H](CC(C)C)NC(=O)[C@@H](N)CCCCN)NC(=O)[C@H](CC(C)C)NC(=O)[C@@H](N)CCCCN)C(N)=O)C(N)=O [CCS-20, (KL)8(KKLCxKL)4(KKL)2KKL]
1 (≈ 0.403 µM) | 1 (≈ 0.403 µM) | 2 (≈ 0.805 µM) | CCCCCC(=O)N[C@@H](CCCCN)C(=O)N[C@@H](CC(C)C)C(=O)NCCCC[C@H](NC(=O)[C@H](CC(C)C)NC(=O)[C@H](CCCCN)NC(=O)CCCCC)C(=O)N[C@@H](CCCCN)C(=O)N[C@@H](CC(C)C)C(=O)NCCCC[C@H](NC(=O)[C@H](CC(C)C)NC(=O)[C@H](CCCCN)NC(=O)[C@H](CCCCNC(=O)[C@H](CC(C)C)NC(=O)[C@H](CCCCN)NC(=O)CCCCC)NC(=O)[C@H](CC(C)C)NC(=O)[C@H](CCCCN)NC(=O)CCCCC)C(=O)N[C@@H](CCCCN)C(=O)N[C@@H](CC(C)C)C(N)=O [MSt-290, (C6KL)4(KKL)2(KKL)] (I: Hexanoyl-KLK([Leu-Lys-Hexanoyl])KLKKL-NH2 / II: Hexanoyl-KLK([Leu-Lys-Hexanoyl])KL; amide I:6-II:C)
1 (≈ 0.208 µM) | 4 (≈ 0.83 µM) | 1 (≈ 0.208 µM) | CCCCCCCCCC(=O)NCCCC[C@H](NC(=O)[C@H](CC(C)C)NC(=O)[C@H](CCCCN)NC(=O)[C@H](CCCCNC(=O)[C@H](CC(C)C)NC(=O)[C@H](CCCCN)NC(=O)[C@H](CCCCNC(=O)[C@H](CC(C)C)NC(=O)[C@H](CCCCN)NC(=O)[C@H](CCCCNC(=O)[C@H](CC(C)C)NC(=O)[C@@H](N)CCCCN)NC(=O)[C@H](CC(C)C)NC(=O)[C@@H](N)CCCCN)NC(=O)[C@H](CC(C)C)NC(=O)[C@H](CCCCN)NC(=O)[C@H](CCCCNC(=O)[C@H](CC(C)C)NC(=O)[C@@H](N)CCCCN)NC(=O)[C@H](CC(C)C)NC(=O)[C@@H](N)CCCCN)NC(=O)[C@H](CC(C)C)NC(=O)[C@H](CCCCN)NC(=O)[C@H](CCCCNC(=O)[C@H](CC(C)C)NC(=O)[C@H](CCCCN)NC(=O)[C@H](CCCCNC(=O)[C@H](CC(C)C)NC(=O)[C@@H](N)CCCCN)NC(=O)[C@H](CC(C)C)NC(=O)[C@@H](N)CCCCN)NC(=O)[C@H](CC(C)C)NC(=O)[C@H](CCCCN)NC(=O)[C@H](CCCCNC(=O)[C@H](CC(C)C)NC(=O)[C@@H](N)CCCCN)NC(=O)[C@H](CC(C)C)NC(=O)[C@@H](N)CCCCN)C(N)=O [MSt-266, (KL)8(KKL)4(KKL)2(KKLKC10)] (I: H-KLK([Leu-Lys])KLKKLKKLK(Decanoyl)-NH2 / II: H-KLK([Leu-Lys])KLKKL / III: H-KLK([Leu-Lys])KL / IV: H-KLK([Leu-Lys])KL; amide I:6-IV:C, I:9-II:C, II:6-III:C)
4 (≈ 0.858 µM) | 7 (≈ 1.5 µM) | 10 (≈ 2.15 µM) | CC(C)C[C@@H](NC(=O)[C@@H](CCCNC(=N)N)NC(=O)[C@@H](CNC(=O)[C@@H](CC(C)C)NC(=O)[C@@H](CCCNC(=N)N)NC(=O)[C@@H](CNC(=O)[C@@H](CC(C)C)NC(=O)[C@@H](CCCNC(=N)N)NC(=O)[C@@H](CNC(=O)[C@@H](CC(C)C)NC(=O)[C@H](N)CCCNC(=N)N)NC(=O)[C@@H](CC(C)C)NC(=O)[C@H](N)CCCNC(=N)N)NC(=O)[C@@H](CC(C)C)NC(=O)[C@@H](CCCNC(=N)N)NC(=O)[C@@H](CNC(=O)[C@@H](CC(C)C)NC(=O)[C@H](N)CCCNC(=N)N)NC(=O)[C@@H](CC(C)C)NC(=O)[C@H](N)CCCNC(=N)N)NC(=O)[C@@H](CC(C)C)NC(=O)[C@@H](CCCNC(=N)N)NC(=O)[C@@H](CNC(=O)[C@@H](CC(C)C)NC(=O)[C@@H](CCCNC(=N)N)NC(=O)[C@@H](CNC(=O)[C@@H](CC(C)C)NC(=O)[C@H](N)CCCNC(=N)N)NC(=O)[C@@H](CC(C)C)NC(=O)[C@H](N)CCCNC(=N)N)NC(=O)[C@@H](CC(C)C)NC(=O)[C@@H](CCCNC(=N)N)NC(=O)[C@@H](CNC(=O)[C@@H](CC(C)C)NC(=O)[C@H](N)CCCNC(=N)N)NC(=O)[C@@H](CC(C)C)NC(=O)[C@H](N)CCCNC(=N)N)C(N)=O [MSt-156, (rl)8(brl)4(brl)2(brl)] (I: H-[dR][dL][dDap]([dL-dR])[dR][dL][dDap][dR][dL][dDap][dR][dL]-NH2 / II: H-[dR][dL][dDap]([dL-dR])[dR][dL][dDap][dR][dL] / III: H-[dR][dL][dDap]([dL-dR])[dR][dL] / IV: H-[dR][dL][dDap]([dL-dR])[dR][dL]; amide I:6-IV:C, I:9-II:C, II:6-III:C)

Structure (SMILES) | MIC E. coli DH5α [1] [µg/mL] | MIC B. subtilis BR151 [2] [µg/mL] | MIC P. aeruginosa PAO1 [3] [µg/mL]
CCCCCCCCCC(=O)NCCCC[C@H](NC(=O)[C@H](CC(C)C)NC(=O)[C@H](CCCCN)NC(=O)[C@H](CCCCNC(=O)[C@H](CC(C)C)NC(=O)[C@H](CCCCN)NC(=O)[C@H](CCCCNC(=O)[C@H](CC(C)C)NC(=O)[C@@H](N)CCCCN)NC(=O)[C@H](CC(C)C)NC(=O)[C@@H](N)CCCCN)NC(=O)[C@H](CC(C)C)NC(=O)[C@H](CCCCN)NC(=O)[C@H](CCCCNC(=O)[C@H](CC(C)C)NC(=O)[C@@H](N)CCCCN)NC(=O)[C@H](CC(C)C)NC(=O)[C@@H](N)CCCCN)C(N)=O [MSt-262, (KL)4(KKL)2(KKLKC10)] (I: H-KLK([Leu-Lys])KLKKLK(Decanoyl)-NH2 / II: H-KLK([Leu-Lys])KL; amide I:6-II:C) | 1 (≈ 0.421 µM) | 2 (≈ 0.843 µM) | 1 (≈ 0.421 µM)
